From patent US20250388597A1, “BIFUNCTIONAL PHOTOCROSSLINKING PROBES FOR COVALENT CAPTURE OF PROTEIN-NUCLEIC ACID COMPLEXES IN CELLS” (UNIVERSITY OF SOUTHERN CALIFORNIA, priority 2022, published 2025)
“Also recorded” adds a separate entry of the source.

Assays:
GM12878 cell lines = experiment: Crosslinking in suspension GM12878 cell lines, electrophoresis after sonication; assay type: cell-based; conditions: compared to the no-probe or no-UV controls; FIG. 5F
Description: For this, we tested the prototype BFPX probe 4AMT-LC-SDA in the suspension GM12878 cell lines.

DNA binding by NFAT1 = target: T1, DNA binding by NFAT1 (Homo sapiens, UniProt Q13469); experiment: Native EMSA of the effect on DNA binding by NFAT1; assay type: biochemical
T1 construct: human NFAT1 protein (residue 399-676, NFAT1-DBD)
T1 sequence (Q13469 399-676): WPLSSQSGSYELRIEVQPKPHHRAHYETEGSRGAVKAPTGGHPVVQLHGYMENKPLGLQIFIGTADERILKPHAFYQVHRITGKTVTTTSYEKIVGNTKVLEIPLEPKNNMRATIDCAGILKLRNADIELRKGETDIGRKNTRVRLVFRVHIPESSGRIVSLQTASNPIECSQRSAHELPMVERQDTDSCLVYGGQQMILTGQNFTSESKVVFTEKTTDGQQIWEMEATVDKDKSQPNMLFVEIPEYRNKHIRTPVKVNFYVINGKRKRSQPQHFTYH
Description: All binding reactions contain 10 μM 27 mer dsDNA (5′6-FAM labeled) with a NFAT-binding site, and various combinations of NFAT1 protein (14 μM), FA (1% v/v), 4AMT-LC-SDA (20 μM), with or without UV illumination (365 nm, LED, 30 Watt, sample distance 2 cm, exposure time 15 min at 4 degree C.). 10 μl of the binding reaction is run on a 10% PAGE 0.5×TBE gel. The same gel was visualized by FAM fluorescence for DNA (top) and by Coomassie blue stain for protein (bottom). The higher smearing bands in lane 3, 8, 9, and 10 are most likely non-specific protein complexes often seen when an excessive amount of protein is used to ensure all DNA is bound.
The binding reactions were performed in a buffer of 20 mM Hepes pH 7.6, 150 mM NaCl, 1 mM DTT, 12% glycerol. Typically protein and DNA are mixed to bind at room temperature for 30 min, followed by addition of BFPX probes for an additional 15 min and then UV illumination. In the case of FA treatment, the reaction time is 10 min at room temperature and then quenched by 250 mM glycine. When included (as indicated by a positive sign), the binding reaction contains 10 μM 27 mer dsDNA (Cy5-labeled) with a NFAT-binding site (the antigen receptor response element 2, ARRE2, from the IL-2 promoter, 5′-Cy5-[sequence]-3′ (SEQ ID NO: 2), the complementary strand is not labeled), 24 μM of the DNA binding domain (DBD) of human NFAT1 protein (residue 399-676, NFAT1-DBD). The UV illumination (as indicated by a positive sign) was carried out using a LED Chip (21.4 mm×21.4 mm, 365-370 nm, 30 Watt, sample distance 2 cm, exposure time 2-15 min at 4 degree C., here the exposure time is 15 min). Half of the binding reaction (7.5 μl) was run on a 10% PAGE 0.5×TBE gel and visualized by Cy5 fluorescence on DNA. The small amount of single stranded DNA is due to incomplete annealing. The higher smearing bands are most likely non-specific protein complexes. Neither of these experimental imperfections affected the main conclusion of this experiment because the double stranded-DNA bands and the specific NFAT-DNA complex bands (the middle sharp bands) are well defined and can be monitored without the interference of the other bands.
The presence of both DNA and protein in the same shifted band can be checked by the FAM fluorescence signal (top) and Coomassie stain (bottom), respectively (free NFAT is positively charged and not observable under the EMSA condition).

NFAT1/DNA complex = target: T2, NFAT1/DNA complex (Homo sapiens, UniProt Q13469); experiment: In vitro photo-crosslinking of assembled NFAT1/DNA complex, denaturing SDS gel; assay type: biochemical
T2 construct: human NFAT1 protein (residue 399-676, NFAT1-DBD)
T2 sequence (Q13469 399-676): T1 sequence (Q13469 399-676)
Description: The probe binding and UV crosslinking were carried out as described in FIG. 5G and FIG. 7. The crosslinked complexes (lane 3 and lane 6) were further treated with DTT (100 mM, heat 50 degree C. for 30 min). The reaction mixtures were run on SDS gel and visualized by FAM fluorescence for DNA (top) and by Coomassie blue stain for protein (bottom) as described in FIG. 7. FIG. 7 depicts denaturing SDS gel analysis of covalent capture of in vitro assembled MEF2/DNA and NFAT1/DNA complexes by the BFPX probe, SPB-AAD. […] The protein/DNA complexes are incubated at room temperature for 30 min, and treated with various combination of BFPX probe (SPB-AAD) and UV illumination as described in FIG. 5G. […] The reaction mixtures were added SDS loading dye (2% SDS), boil for 10 min, and run on SDS gel (Bio-Rad Any Kd gradient gel). The same gel was visualized by FAM fluorescence for DNA (top) and by Coomassie blue stain for protein (bottom). FIG. 8C depicts denaturing SDS gel analysis of covalent capture of in vitro assembled MEF2/DNA and NFAT1/DNA complexes by the BFPX probe, SPB-PEG3-AAD. […] The reaction mixtures were run on SDS gel and visualized by FAM fluorescence for DNA (top) and by Coomassie blue stain for protein (bottom) as described in FIG. 7. […] Typically protein and DNA are mixed to bind at room temperature for 30 min, followed by addition of BFPX probes for an additional 15 min and then UV illumination. In the case of FA treatment, the reaction time is 10 min at room temperature and then quenched by 250 mM glycine. […] The UV illumination (as indicated by a positive sign) was carried out using a LED Chip (21.4 mm×21.4 mm, 365-370 nm, 30 Watt, sample distance 2 cm, exposure time 2-15 min at 4 degree C., here the exposure time is 15 min). […] The small amount of single stranded DNA is due to incomplete annealing. The higher smearing bands are most likely non-specific protein complexes. Neither of these experimental imperfections affected the main conclusion of this experiment because the double stranded-DNA bands and the specific NFAT-DNA complex bands (the middle sharp bands) are well defined and can be monitored without the interference of the other bands. […] The gel was visualized by Cy5 fluorescence for DNA. FIG. 12E depicts further characterization of BFPX crosslinking of NFAT1/DNA complexes using different DNA substrates and staining techniques. Two unlabeled DNA substrates containing a core NFAT-binding site and different flanking bases and sequence lengths ([…] ID NO: 4), 21 mer, c2: [NT] ID NO: 5), 16 mer) were used to bind the NFAT1-DBD as described in FIG. 12C. […] The reactions were then analyzed by SDS PAGE under denaturing condition as described in FIG. 12D. Because the DNA is unlabeled, the gel was stained using either cyanine-based dye (SYBR Safe) or Coomassie Blue stain (CB). […] The different size of the NFAT-c1DNA complexes (lane 2) and NFAT-c2DNA complexes (lane 4) was resolved by loading reactions of lane 2 (2a, 2b and 2c) and lane 4 (4a, 4b and 4c) as triplicates side-by-side on the same gel (lower panel) using either SYBR and CB stain. FIG. 12F depicts time course of BFPX crosslinking of NFAT1/DNA complexes. […] The reactions at different time points were then analyzed on SDS gel as described in FIG. 12D. […] When the UV exposure time is longer than 5 min, a significant amount of crosslinked NFAT-DNA complex can be formed with UV illumination without SPB-AAD.

MEF2A/DNA complex = target: T3, MEF2A/DNA complex (Homo sapiens, UniProt Q02078); experiment: In vitro photo-crosslinking of assembled MEF2/DNA complex, read on denaturing SDS/urea gel or agarose gel; assay type: biochemical; conditions: for selectivity for DNA binding protein versus non-DNA binding protein BSA: BSA under the same condition; for formation of covalent MEF2/DNA crosslinked complex: probe + UV, denaturing gel
T3 construct: human MEF2A DBD (residues 2-95); made in house
T3 sequence (Q02078 2-95): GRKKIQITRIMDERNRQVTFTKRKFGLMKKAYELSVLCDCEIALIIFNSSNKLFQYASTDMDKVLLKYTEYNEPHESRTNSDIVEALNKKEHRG
Description: In vitro assays have confirmed the success and the efficiency of the demo probe (AMT-LC-SDA) in crosslinking double strand DNA of various contents and DNA-binding protein human myocyte enhancer factor 2A (MEF2A) (1-95 aa) (FIG. 5C-FIG. 5E). The solid crosslinking is confirmed for the probe with UV photo crosslinking conditions by denaturing or digestive approaches such as running with 8.3 M urea gel, SDS gel, combined with sample with overnight digestion of proteinase K at 65 Celsius and denatured at high temperature of 95 Celsius with SDS loading dye. […] Under these harsh evaluation conditions, the protein got digested on the crosslinking complex thoroughly, yet the remaining crosslinked amino acids residuals still have made the DNA to be in a larger size and shifted clearly compared to other controls, which is indicated by the bold shaped arrow. Agarose gel was also used for its bigger pore size to estimate the crosslinking efficiency (UV 2 hrs), estimated by the amount of the left free DNA, our probe has reached around 30-60% efficiency (FIG. 5E), which is much higher than the UV-initiated protein DNA crosslinking without the use of a probe (10-20%) as reported in Nature Communications, volume 11, Article number: 3019 (2020). […] This further supports the idea of applying this probe for replacement of formaldehyde, it crosslinks the protein only within the proximity of nucleic acids, thereby largely reducing the random protein-protein crosslinking noise and helps to preserve the native state of protein epitopes.
The BFPX probe 4AMT-LC-SDA was synthesized with good yield by the NHS-amine chemistry using psoralen and diazirine derivatives (FIG. 5A, FIG. 5B). To test its photo crosslinking ability, human transcription factor MEF2A (the MADS-box/MEF2 domain) and double strand DNA containing a MEF2 binding site were used. We first used electrophoresis mobility shift assay (EMSA) to validate the activity of the purified recombinant MEF2A DNA-binding domain. After finding out the optimal protein to DNA ratio, the in vitro assembled MEF2/DNA complex was then subject to photocrosslinking in the presence or absence of the 4AMT-LC-SDA probe with or without UV illumination. Multiple other control experiments were carried out in parallel to test the specificity of photocrosslinking between the DNA and MEF2. Specifically, parameters such as protein/DNA amounts (1:[…]), ratio, UV time (10 m to 4 hrs), wavelength (320 to 360 nm), LV source (mercury long lamp, LED) and their distance to the reaction mixture have been optimized along the course. The MEF2 Protein and DNA were incubated first to mimic an in vivo binding mode and stoichiometry, and then the mixture was incubated with our 4AMT-LC-SDA probe to undergo UV illumination. The results were evaluated by running denaturing gels (SDS in FIG. 5D, or Urea in FIG. 5C) against the high temperature denatured reaction mixtures and checking the respective protein (silver stain) or DNA (FAM label) signals. To further rule out any other possible false positiveness during loading, proteinase K digestion was applied to all the samples including the negative controls with SDS at 65 degrees.

## Cc1oc2c(C)c3oc(=O)cc(C)c3cc2c1CNC(=O)CCCCCNC(=O)CCC1(C)N=N1 [4AMT-LC-SDA]
GM12878 cell lines
  crosslink effect in cells: good crosslink effect
DNA binding by NFAT1; FIG. 5G, FA 1% v/v, 4AMT-LC-SDA 20 μM with or without UV 365 nm
  effect on the DNA binding by NFAT1: did not affect
DNA binding by NFAT1; with and without UV365, data not shown
  effect on NFAT1 protein: did not affect NFAT1 protein
NFAT1/DNA complex; 25 μM probe, DTT 100 mM, 50 degree C., 30 min, FIG. 5H
  effect of DTT treatment on the crosslinked NFAT-DNA complex: little effect
NFAT1/DNA complex; probe + UV 365 nm, 2% SDS, boil 10 min
  formation of covalent NFAT1/DNA crosslinked complex stable under denaturing SDS-PAGE: highly efficient crosslinking; also recorded: crosslinked NFAT to its DNA substrate efficiently
MEF2A/DNA complex
  selectivity for DNA binding protein versus non-DNA binding protein BSA: did not show any signs of forming crosslink with the DNA
  formation of covalent MEF2/DNA crosslinked complex: successful photo crosslink complex between protein and DNA; also recorded: highly efficient crosslinking
MEF2A/DNA complex; listed as AMT-LC-SDA
  selectivity for DNA binding protein versus non-DNA binding protein BSA: only MEF2A sample shows consumption of DNA substrate by crosslinking
  formation of covalent MEF2/DNA crosslinked complex: the crosslinking of protein and nucleic acids takes place
MEF2A/DNA complex; agarose gel, comparison of band intensities
  photo crosslinking efficiency of the MEF2-DNA complex: around 50%
MEF2A/DNA complex; agarose gel, UV 2 hrs, dsDNA + MEF2A (1-95 aa)
  crosslinking efficiency, estimated by the amount of the left free DNA: 30-60%
